Measured values from PubChem BioAssay (NCI).
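In this assay, cells in 96-well plates receive the compound at five concentrations for 48 hours. Endpoints are linearly interpolated between the surrounding concentrations. The concentration for 50% growth inhibition is given as GI50. At the TGI there is no net growth.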

Tests used:
Assay in all cases: DTP human tumour cell line panel, 48 h
LOX IMVI melanoma = tested on: LOX IMVI melanoma
HCT-15 colon = tested on: HCT-15 colon
SNB-19 CNS = tested on: SNB-19 CNS
HCC-2998 colon = tested on: HCC-2998 colon
PC-3 prostate = tested on: PC-3 prostate
HOP-62 NSCLC = tested on: HOP-62 NSCLC
HL-60(TB) leukemia = tested on: HL-60(TB) leukemia
NCI-H226 lung = tested on: NCI-H226 lung
EKVX NSCLC = tested on: EKVX NSCLC
OVCAR-8 ovarian = tested on: OVCAR-8 ovarian
SF-295 CNS = tested on: SF-295 CNS
CCRF-CEM leukemia = tested on: CCRF-CEM leukemia
NCI-H460 lung = tested on: NCI-H460 lung
HS 578T breast = tested on: HS 578T breast
OVCAR-5 ovarian = tested on: OVCAR-5 ovarian
NCI-H23 lung = tested on: NCI-H23 lung
UACC-62 melanoma = tested on: UACC-62 melanoma
OVCAR-3 ovarian = tested on: OVCAR-3 ovarian
K-562 leukemia = tested on: K-562 leukemia
A498 renal = tested on: A498 renal
MOLT-4 leukemia = tested on: MOLT-4 leukemia
SN12C renal = tested on: SN12C renal
HOP-92 NSCLC = tested on: HOP-92 NSCLC
NCI/ADR-RES ovarian = tested on: NCI/ADR-RES ovarian
A549 NSCLC = tested on: A549 NSCLC
DU-145 prostate = tested on: DU-145 prostate
SK-MEL-2 melanoma = tested on: SK-MEL-2 melanoma
ACHN renal = tested on: ACHN renal
SR leukemia = tested on: SR leukemia
BT-549 breast = tested on: BT-549 breast
KM12 colon = tested on: KM12 colon
UACC-257 melanoma = tested on: UACC-257 melanoma
SK-MEL-28 melanoma = tested on: SK-MEL-28 melanoma
SF-539 CNS = tested on: SF-539 CNS
CAKI-1 renal = tested on: CAKI-1 renal
TK-10 renal = tested on: TK-10 renal
U251 CNS = tested on: U251 CNS
OVCAR-4 ovarian = tested on: OVCAR-4 ovarian
UO-31 renal = tested on: UO-31 renal
SW-620 colon = tested on: SW-620 colon
IGROV1 ovarian = tested on: IGROV1 ovarian
HT29 colon = tested on: HT29 colon
MDA-MB-231 breast = tested on: MDA-MB-231 breast
786-0 renal = tested on: 786-0 renal
MCF7 breast = tested on: MCF7 breast
MALME-3M melanoma = tested on: MALME-3M melanoma
HCT-116 colon = tested on: HCT-116 colon
SK-MEL-5 melanoma = tested on: SK-MEL-5 melanoma
SF-268 CNS = tested on: SF-268 CNS
RXF 393 renal = tested on: RXF 393 renal
SK-OV-3 ovarian = tested on: SK-OV-3 ovarian
MDA-MB-435 = tested on: MDA-MB-435
M14 melanoma = tested on: M14 melanoma
NCI-H522 lung = tested on: NCI-H522 lung
T-47D breast = tested on: T-47D breast
SNB-75 CNS = tested on: SNB-75 CNS
COLO 205 colon = tested on: COLO 205 colon
RPMI-8226 leukemia = tested on: RPMI-8226 leukemia

CC1=C(C(=O)Nc2ccc3[nH]ncc3c2)C(c2ccc3ccccc3c2)CC(=O)N1 (stereo unspecified)
GI50 (LOX IMVI melanoma): 13.2 µM | TGI (LOX IMVI melanoma): > 25 µM | GI50 (HCT-15 colon): > 25 µM | TGI (HCT-15 colon): > 25 µM | GI50 (SNB-19 CNS): > 25 µM | TGI (SNB-19 CNS): > 25 µM | GI50 (HCC-2998 colon): > 25 µM | TGI (HCC-2998 colon): > 25 µM | GI50 (PC-3 prostate): > 25 µM | TGI (PC-3 prostate): > 25 µM | GI50 (HOP-62 NSCLC): 6.46 µM | TGI (HOP-62 NSCLC): > 25 µM | GI50 (HL-60(TB) leukemia): > 25 µM | TGI (HL-60(TB) leukemia): > 25 µM | GI50 (NCI-H226 lung): 1.04 µM | TGI (NCI-H226 lung): > 18.2 µM | GI50 (EKVX NSCLC): > 17.9 µM | TGI (EKVX NSCLC): > 25 µM | GI50 (OVCAR-8 ovarian): > 25 µM | TGI (OVCAR-8 ovarian): > 25 µM | GI50 (SF-295 CNS): 16.5 µM | TGI (SF-295 CNS): > 25 µM | GI50 (CCRF-CEM leukemia): > 25 µM | TGI (CCRF-CEM leukemia): > 25 µM | GI50 (NCI-H460 lung): > 25 µM | TGI (NCI-H460 lung): > 25 µM | GI50 (HS 578T breast): 0.873 µM | TGI (HS 578T breast): > 25 µM | GI50 (OVCAR-5 ovarian): 20.5 µM | TGI (OVCAR-5 ovarian): > 25 µM | GI50 (NCI-H23 lung): 19 µM | TGI (NCI-H23 lung): > 25 µM | GI50 (UACC-62 melanoma): 14.5 µM | TGI (UACC-62 melanoma): > 25 µM | GI50 (OVCAR-3 ovarian): > 25 µM | TGI (OVCAR-3 ovarian): > 25 µM | GI50 (K-562 leukemia): > 25 µM | TGI (K-562 leukemia): > 25 µM | GI50 (A498 renal): 4.22 µM | TGI (A498 renal): 22 µM | GI50 (MOLT-4 leukemia): > 25 µM | TGI (MOLT-4 leukemia): > 25 µM | GI50 (SN12C renal): > 25 µM | TGI (SN12C renal): > 25 µM | GI50 (HOP-92 NSCLC): 0.0408 µM | TGI (HOP-92 NSCLC): 10.9 µM | GI50 (NCI/ADR-RES ovarian): > 25 µM | TGI (NCI/ADR-RES ovarian): > 25 µM | GI50 (A549 NSCLC): > 25 µM | TGI (A549 NSCLC): > 25 µM | GI50 (DU-145 prostate): > 25 µM | TGI (DU-145 prostate): > 25 µM | GI50 (SK-MEL-2 melanoma): > 25 µM | TGI (SK-MEL-2 melanoma): > 25 µM | GI50 (ACHN renal): > 25 µM | TGI (ACHN renal): > 25 µM | GI50 (SR leukemia): > 25 µM | TGI (SR leukemia): > 25 µM | GI50 (BT-549 breast): 4.11 µM | TGI (BT-549 breast): > 25 µM | GI50 (KM12 colon): 17.8 µM | TGI (KM12 colon): > 25 µM | GI50 (UACC-257 melanoma): > 25 µM | TGI (UACC-257 melanoma): > 25 µM | GI50 (SK-MEL-28 melanoma): > 22.2 µM | TGI (SK-MEL-28 melanoma): > 25 µM | GI50 (SF-539 CNS): 9.18 µM | TGI (SF-539 CNS): > 25 µM | GI50 (CAKI-1 renal): > 16.9 µM | TGI (CAKI-1 renal): > 25 µM | GI50 (TK-10 renal): 8.73 µM | TGI (TK-10 renal): > 25 µM | GI50 (U251 CNS): > 25 µM | TGI (U251 CNS): > 25 µM | GI50 (OVCAR-4 ovarian): 13.4 µM | TGI (OVCAR-4 ovarian): > 25 µM | GI50 (UO-31 renal): 2.4 µM | TGI (UO-31 renal): > 25 µM | GI50 (SW-620 colon): 9.97 µM | TGI (SW-620 colon): > 25 µM | GI50 (IGROV1 ovarian): 8.08 µM | TGI (IGROV1 ovarian): > 25 µM | GI50 (HT29 colon): 20 µM | TGI (HT29 colon): > 25 µM | GI50 (MDA-MB-231 breast): 11.7 µM | TGI (MDA-MB-231 breast): > 25 µM | GI50 (786-0 renal): 15.1 µM | TGI (786-0 renal): > 25 µM | GI50 (MCF7 breast): 24.4 µM | TGI (MCF7 breast): > 25 µM | GI50 (MALME-3M melanoma): 11 µM | TGI (MALME-3M melanoma): > 25 µM | GI50 (HCT-116 colon): 14.1 µM | TGI (HCT-116 colon): > 25 µM | GI50 (SK-MEL-5 melanoma): > 19.3 µM | TGI (SK-MEL-5 melanoma): > 25 µM | GI50 (SF-268 CNS): 11.5 µM | TGI (SF-268 CNS): > 25 µM | GI50 (RXF 393 renal): 4.11 µM | TGI (RXF 393 renal): > 23.8 µM | GI50 (SK-OV-3 ovarian): > 25 µM | TGI (SK-OV-3 ovarian): > 25 µM | GI50 (MDA-MB-435): > 25 µM | TGI (MDA-MB-435): > 25 µM | GI50 (M14 melanoma): > 25 µM | TGI (M14 melanoma): > 25 µM | GI50 (NCI-H522 lung): 13.8 µM | TGI (NCI-H522 lung): > 25 µM | GI50 (T-47D breast): > 25 µM | TGI (T-47D breast): > 25 µM | GI50 (SNB-75 CNS): 1.54 µM | TGI (SNB-75 CNS): > 20.1 µM | GI50 (COLO 205 colon): 9.96 µM | TGI (COLO 205 colon): > 21.2 µM | GI50 (RPMI-8226 leukemia): > 25 µM | TGI (RPMI-8226 leukemia): > 25 µM
